# Reference: US20250313569A1, “Pharmaceutical Compounds And Compositions As Modulators Of MAS-Related G-Protein Receptor X2” (Enanta Pharmaceuticals, Inc., priority 2024, published 2025)
# Molecular target: T1, MRGPRX2 LAD2 (Homo sapiens, UniProt Q96LB1)
# T1 construct: host or cells: LAD2 human mast cells
# T1 sequence (Q96LB1 1-330): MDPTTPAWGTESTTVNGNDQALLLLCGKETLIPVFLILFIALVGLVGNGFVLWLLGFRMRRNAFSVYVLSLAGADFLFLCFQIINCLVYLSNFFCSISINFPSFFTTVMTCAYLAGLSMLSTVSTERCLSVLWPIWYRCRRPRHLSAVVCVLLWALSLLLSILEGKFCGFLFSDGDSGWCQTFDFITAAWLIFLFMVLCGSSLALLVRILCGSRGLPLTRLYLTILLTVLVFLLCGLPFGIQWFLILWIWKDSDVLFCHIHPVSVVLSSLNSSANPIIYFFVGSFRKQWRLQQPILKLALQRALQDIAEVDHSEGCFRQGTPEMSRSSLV
# Test: LAD2 β-hexosaminidase release assay (degranulation), Cortistatin-14 at EC75
# Type: cell-based
# Conditions: LAD2 cells; 1 hour compound incubation, Cortistatin-14 at EC75 for 30 minutes; percent degranulation (β-hexosaminidase)
# Procedure: LAD2 cells obtained from the NIH were cultured in StemPro34 (Gibco) serum-free media supplemented with GlutaMax, penicillin and streptomycin, and 100 ng/mL SCF (Invitrogen). Cells were maintained in a 37° C., 5% CO2 humidified incubator at a concentration of 2-5E5 cells/mL, with hemidepletion once a week.
# One day prior to the assay, cells were starved of SCF at a concentration of 2.3E5 cells/mL. On the day of the assay cells were washed twice in Tyrode's Buffer containing 0.04% BSA (assay buffer) and plated in a 96 well-v-bottom assay plate at 20,000 cells per well in 80 μL of assay buffer. Compounds were solubilized at 10 mM DMSO and added as a 10-fold overconcentrated 8-point curve in assay buffer in a volume of 10 μL using the JANUS liquid handler. Assay plates were incubated for 1 hour at 37° C. Cortistatin-14 was diluted in assay buffer to […] its predetermined EC75 and added to the assay plates in a volume of 10 μL. Assay plates were incubated at 37° C. for 30 minutes. After incubation, cells were pelleted and 50 μL of supernatant from each well was transferred to a 96 well flat bottom plate containing 100 μL of substrate solution (3.5 mg/mL p-Nitrophenyl-N-acetyl-β-D-glucosaminide (Sigma Aldrich) in 40 mM Citrate Buffer (Thermo Fisher)). The remaining cell pellets were lysed with 150 μL of 0.1% Triton-X-100 and mixed thoroughly. 50 μL of lysate was transferred to a 96-well flat bottom plate containing 100 μL of substrate solution. Plates with supernatants and lysates were incubated at 37° C. for 90 minutes prior to addition of 50 μL of 400 mM Glycine buffer (pH 10.7). The plates were read on a Perkin Elmer Envision plate reader at an Abs of 405 nanometers. Percent degranulation was calculated and Xlfit was used to calculate an EC50 value for each compound using a 4-parameter logistic curve fitting model. EC50 ranges are reported as follows: A<100 nM; B 0.1-1 μM; C>1 μM.
row,EC50 [nM],SMILES
1,< 100,O=C(N[C@H]1C[C@@H](Nc2cc(C(F)(F)F)nc3ccc(Cl)cc23)CN(C(=O)C(F)F)C1)c1cn(CC(F)(F)F)nc1C1CC1 [Example 90]
2,< 100,CC(=O)N1C[C@@H](NC(=O)c2cn(CC(C)(C)O)nc2C(F)(F)F)C[C@@H](Nc2cc(C(F)(F)F)nc3ccc(Cl)cc23)C1 [Example 95]
3,< 100,CC(C)(O)Cn1cc(C(=O)N[C@H]2C[C@@H](Nc3cc(C(F)(F)F)nc4ccc(Cl)cc34)CN(C(=O)[C@H]3CC3(F)F)C2)c(Cl)n1 [Example 78]
4,< 100,CC(=O)N1C[C@@H](NC(=O)c2cn(CC(F)(F)F)nc2C2CCC2)C[C@@H](Nc2cc(C(F)(F)F)nc3ccc(Cl)cc23)C1 [Example 100]
5,< 100,CC(=O)N1C[C@@H](NC(=O)c2cn(CC(C)(C)O)nc2C)C[C@@H](Nc2cc(C(F)(F)F)nc3ccc(Cl)cc23)C1 [Example 104]
6,< 100,O=C(N[C@H]1C[C@@H](Nc2cc(C(F)(F)F)nc3ccc(Cl)cc23)CN(C(=O)C(F)F)C1)c1cn(C2CCC(F)(F)CC2)nc1Cl [Example 121]
7,< 100,CC(C)(O)Cn1cc(C(=O)N[C@H]2C[C@@H](Nc3cc(C(F)(F)F)nc4ccc(Cl)cc34)CN(C(=O)C3(C(F)(F)F)CC3)C2)c(Cl)n1 [Example 82]
8,< 100,CC(=O)N1C[C@@H](NC(=O)c2cn(C3CC(F)(F)C3)nc2C(F)F)C[C@@H](Nc2cc(C(F)(F)F)nc3ccc(Cl)cc23)C1 [Example 108]
9,< 100,O=C(N[C@H]1C[C@@H](Nc2cc(C(F)(F)F)nc3ccc(Cl)cc23)CN(C(=O)C(F)F)C1)c1cn(C[C@@H](O)C(F)(F)F)nc1Cl [Example 116]
10,< 100,CC(=O)N1C[C@@H](NC(=O)c2cn(CC(F)(F)F)nc2C2CC2)C[C@@H](Nc2c(C)c(C(F)(F)F)nc3ccc(Cl)cc23)C1 [Example 135]
11,< 100,C[C@@H](O)Cn1cc(C(=O)N[C@H]2C[C@@H](Nc3cc(C(F)(F)F)nc4ccc(Cl)cc34)CN(C(=O)C(F)F)C2)c(Cl)n1 [Example 123]
12,< 100,CC(=O)N1C[C@@H](NC(=O)c2cn(CC(C)(C)O)nc2C(F)F)C[C@@H](Nc2cc(C(F)(F)F)nc3ccc(Cl)cc23)C1 [Example 103]
13,< 100,O=C(N[C@H]1C[C@@H](Nc2cc(C(F)(F)F)nc3ccc(Cl)cc23)CN(C(=O)C(F)F)C1)c1cn(CC2(O)CCC2)nc1Cl [Example 119]
14,< 100,O=C(C(F)F)N1C[C@@H](Nc2nccc3ccccc23)C[C@@H](Nc2cc(C(F)(F)F)nc3ccc(Cl)cc23)C1 [Example 125]
15,< 100,CC(=O)N1C[C@@H](NC(=O)c2c[nH]c3ncccc23)C[C@@H](Nc2cc(C(F)(F)F)nc3ccc(Cl)cc23)C1 [Example 94]
16,< 100,CC(C)(O)C(O)Cn1cc(C(=O)N[C@H]2C[C@@H](Nc3cc(C(F)(F)F)nc4ccc(Cl)cc34)CN(C(=O)C(F)F)C2)c(Cl)n1 (stereo partly shown) [Example 122]
17,< 100,CC(=O)N1C[C@@H](NC(=O)c2cn(CC(F)(F)F)cc2C(F)(F)F)C[C@@H](Nc2cc(C(F)(F)F)nc3ccc(Cl)cc23)C1 [Example 113]
18,< 100,CC(=O)N1C[C@@H](NC(=O)c2ccc3cc[nH]c3c2)C[C@@H](Nc2cc(C(F)(F)F)nc3ccc(Cl)cc23)C1 [Example 112]
19,< 100,CC(C)(O)Cn1cc(C(=O)N[C@H]2C[C@@H](Nc3cc(C(F)(F)F)nc4ccc(Cl)cc34)CN(C(=O)[C@H](NC(=O)C(F)(F)F)c3ccccc3)C2)c(Cl)n1 [Example 86]
20,< 100,CC(=O)N1C[C@@H](NC(=O)c2cn(CC(C)(C)O)c3ncccc23)C[C@@H](Nc2cc(C(F)(F)F)nc3ccc(Cl)cc23)C1 [Example 98]
21,< 100,CC(=O)N1C[C@@H](NC(=O)c2cn(CC(F)(F)F)nc2C2CC2)C[C@@H](Nc2cc(C(F)(F)F)nc3c(F)cc(Cl)cc23)C1 [Example 139]
22,< 100,O=C(N[C@H]1C[C@@H](Nc2cc(C(F)(F)F)nc3ccc(Cl)cc23)CN(C(=O)[C@@H]2CC2(F)F)C1)c1cn(CC(F)(F)F)nc1C1CC1 [Example 75]
